Here are results for 15 compounds from the Kinase Knowledgebase extract (Sharma et al. 2016).

This assay addresses CDK2 (human) (UniProt P24941). Put plainly: Enzyme Assay.

`COc1nc(C)c(-c2ccnc(Nc3ccc(C)c(I)c3)n2)s1` registered an IC50 of 700 nM.
For `COc1nc(C)c(-c2ccnc(Nc3ccc(F)c(C)c3)n2)s1` the value was 130 nM.
On to `COc1nc(C)c(-c2ccnc(Nc3ccc(O)cc3)n2)s1`, for which the IC50 stood at 50 nM.
Under `COc1ccc(Nc2nccc(-c3sc(C)nc3C)n2)cc1O` stands 140 nM; under `COc1nc(C)c(-c2ccnc(Nc3ccc(Cl)c(C)c3)n2)s1`, 1180 nM; under `COc1nc(C)c(-c2ccnc(Nc3cccc(O)c3)n2)s1`, 120 nM.
Under `COc1nc(C)c(-c2ccnc(Nc3ccc(F)c([N+](=O)[O-])c3)n2)s1` stands 120 nM; under `COc1nc(C)c(-c2ccnc(Nc3ccc(Cl)cc3)n2)s1`, 110 nM.
For `Cc1nc(C)c(-c2ccnc(Nc3ccc(CCO)cc3)n2)s1` the value was 470 nM.
As to `COc1nc(C)c(-c2ccnc(Nc3ccc(C)c([N+](=O)[O-])c3)n2)s1`, the IC50 was found to be 110 nM.
Under `COc1nc(C)c(-c2ccnc(Nc3cccc([N+](=O)[O-])c3)n2)s1` stands 60 nM.
Compound `COc1ccc(Nc2nccc(-c3sc(OC)nc3C)n2)cc1` registered a half-maximal inhibitory concentration (IC50) of 250 nM.
Under `Cc1nc(N)sc1-c1ccnc(Nc2ccc(C(F)(F)F)cc2)n1` stands 680 nM; under `COc1nc(C)c(-c2ccnc(Nc3ccc(F)cc3)n2)s1`, 120 nM.
`COc1nc(C)c(-c2ccnc(Nc3ccc(N(C)C)cc3)n2)s1` came in with a half-inhibitory concentration (IC50) of 750 nM.
